The text below walks through data of patent US8569509B2, “Thiazole-4-carboxylic acid esters and thioesters as plant protection agents” (priority 2008, dated 2013).

This data set can be described thus: log P determination (HPLC, calibration with unbranched alkan-2-ones). The class given is physicochemical. The method, then:
The calibration is carried out using unbranched alkan-2-ones (having 3 to 16 carbon atoms) with known log P values (determination of the log P values by the retention times using linear interpolation between two successive alkanones). The lambda-maX values were determined in the maxima of the chromatographic signals using the UV spectra from 200 nm to 400 nm.

Setting [1] is: * LC-MS determination in the acidic range at pH 2.7, mobile phases 0.1% aqueous formic acid and acetonitrile (0.1% formic acid), linear gradient 10% to 95% acetonitrile, reversed-phase C 18 HPLC.
Where [2] appears, read: pH 2.7, read-out: log P (pH 2.7).
Setting [3] is: reversed-phase C18 HPLC column, * LC-MS determination in the acidic range at pH 2.7, mobile phases 0.1% aqueous formic acid and acetonitrile (0.1% formic acid), linear gradient 10% to 95% acetonitrile, reversed-phase C 18 HPLC, read-out: log p.

Like-named read-outs stand apart in the source and are kept apart here.

`Cc1cc(C(F)(F)F)nn1CC(=O)N1CCC(c2nc(C(=O)OC/C=C/c3ccccc3)cs2)CC1` [compound 779]: under setting [1], the log p is given as 3.74*.

`Cc1cc(C(F)(F)F)nn1CC(=O)N1CCC(c2nc(C(=O)OCc3cccnc3)cs2)CC1` [compound 780]: the log p under setting [1] is 1.74*.

With `Cc1cc(C(F)(F)F)nn1CC(=O)N1CCC(c2nc(C(=O)Oc3ccc4cccnc4c3)cs2)CC1` [compound 781], under setting [1], the log p is given as 2.42*.

Regarding `Cc1cc(C(F)(F)F)nn1CC(=O)N1CCC(c2nc(C(=O)Oc3cccc4cccnc34)cs2)CC1` [compound 782], the log p under setting [1] is 2.88*.

As for `Cc1cc(C(F)(F)F)nn1CC(=O)N1CCC(c2nc(C(=O)OCc3cccc4ccccc34)cs2)CC1` [compound 783], under setting [1], the log p is on record as 3.90*.

Take `Cc1cc(C(F)(F)F)nn1CC(=O)N1CCC(c2nc(C(=O)OCc3ccc4ccccc4c3)cs2)CC1` [compound 784]: under setting [1], the log p was 3.92*.

For the compound `Cc1cc(C(F)(F)F)nn1CC(=O)N1CCC(c2nc(C(=O)OC(C)c3cccc4ccccc34)cs2)CC1` (stereo not drawn) [compound 785], the log p under setting [1] is on record as 4.16*.

With `Cc1cc(C(F)(F)F)nn1CC(=O)N1CCC(c2nc(C(=O)OC(C)c3ccc4ccccc4c3)cs2)CC1` (stereo not drawn) [compound 786], the log p under setting [1] is 4.18*.

For the compound `Cc1cc(C(F)(F)F)nn1CC(=O)N1CCC(c2nc(C(=O)OCC#Cc3ccccc3)cs2)CC1` [compound 787], the log p under setting [1] was 3.70*.

Take `Cc1cc(C(F)(F)F)nn1CC(=O)N1CCC(c2nc(C(=O)OC3CCCCCC3)cs2)CC1` [compound 788]: the log p under setting [1] is recorded as 4.09*.

In the case of `Cc1cc(C(F)(F)F)nn1CC(=O)N1CCC(c2nc(C(=O)Oc3cccc4c3CCCC4)cs2)CC1` [compound 790], under setting [1], the log p is given as 4.21*.

As for `Cc1cc(C(F)(F)F)nn1CC(=O)N1CCC(c2nc(C(=O)OC3Cc4ccccc4C3)cs2)CC1` [compound 791], the log p under setting [1] is 3.67*.

Take `Cc1cc(C(F)(F)F)nn1CC(=O)N1CCC(c2nc(C(=O)Oc3cccc4c3CCCC4)cs2)CC1` [compound 792]: the log p under setting [1] is recorded as 4.30*.

Consider `Cc1cc(C(F)(F)F)nn1CC(=O)N1CCC(c2nc(C(=O)Oc3ccc4ncccc4c3)cs2)CC1` [compound 793], for which the log p under setting [1] is 2.37*.

For `Cc1cc(C(F)(F)F)nn1CC(=O)N1CCC(c2nc(C(=O)Oc3cccc4cnccc34)cs2)CC1` [compound 794], the log p under setting [1] is on record as 2.18*.

Take `Cc1cc(C(F)(F)F)nn1CC(=O)N1CCC(c2nc(C(=O)O[C@@H]3CCCc4ccccc43)cs2)CC1` [compound 795]: under setting [1], the log p is recorded as 4.06*.

Take `Cc1cc(C(F)F)n(CC(=O)N2CCC(c3nc(C(=O)OC4CCCCC4)cs3)CC2)n1` [compound 796]: under setting [1], the log p is on record as 3.28*.

`Cc1cc(C)n(C(C)(C)C(=O)N2CCC(c3nc(C(=O)OC4CC(C)CCC4C(C)C)cs3)CC2)n1` (stereo not drawn) [compound 797]: under setting [1], the log p is on record as 5.51*.

For the compound `C#CC1(OC(=O)c2csc(C3CCN(C(=O)C(C)(C)n4nc(C)cc4C)CC3)n2)CCCC1` [compound 798], the log p under setting [1] is reported as 3.28*.

For `Cc1cc(C)n(C(C)(C)C(=O)N2CCC(c3nc(C(=O)OC4CC5CCC4(C)C5(C)C)cs3)CC2)n1` (stereo not drawn) [compound 800], the log p under setting [1] is listed as 5.08*.

Take `C=CC(CCC)OC(=O)c1csc(C2CCN(C(=O)C(C)(C)n3nc(C)cc3C)CC2)n1` (stereo not drawn) [compound 801]: under setting [1], the log p is on record as 3.78*.

Take `Cc1cc(C)n(C(C)(C)C(=O)N2CCC(c3nc(C(=O)OC4CC(C)CC(C(C)C)C4)cs3)CC2)n1` (stereo not drawn) [compound 802]: under setting [1], the log p is 5.58*.

Consider `Cc1cc(C)n(C(C)(C)C(=O)N2CCC(c3nc(C(=O)OCCN(C)C)cs3)CC2)n1` [compound 803], for which the log p under setting [1] is reported as 1.03*.

For `C#CC1(OC(=O)c2csc(C3CCN(C(=O)C(C)(C)n4nc(C)cc4C)CC3)n2)CCCCC1` [compound 804], the log p under setting [1] is reported as 3.73*.

In the case of `CCCCC(CC)COC(=O)c1csc(C2CCN(C(=O)C(C)(C)n3nc(C)cc3C)CC2)n1` (stereo not drawn) [compound 806], the log p under setting [1] is recorded as 5.08*.

As for `Cc1cc(C(F)(F)F)nn1CC(=O)N1CCC(c2nc(C(=O)Oc3cccc4ncccc34)cs2)CC1` [compound 807], under setting [1], the log p is 2.59*.

Regarding `Cc1cc(C(F)(F)F)nn1CC(=O)N1CCC(c2nc(C(=O)OC(c3ccccc3)c3ccccc3)cs2)CC1` [compound 808], the log p under setting [1] was 4.17*.

With `Cc1cc(C(F)(F)F)nn1CC(=O)N1CCC(c2nc(C(=O)Oc3cccc4ocnc34)cs2)CC1` [compound 809], the log p under setting [1] is 2.81*.

As for `O=C(OC1CCCCC1)c1csc(C2CCN(C(=O)Cn3nc(C(F)F)cc3C(F)F)CC2)n1` [compound 811, Cyclohexyl 2-(1-{[3,5-bis(difluoromethyl)-1H-pyrazol-1-yl]acetyl}piperidin-4-yl)-1,3-thiazole-4-carboxylate], the chromatographic logP by setting is: under setting [2], 3.64; under setting [3], 3.64.

As to `O=C(Oc1cccc2ccccc12)c1csc(C2CCN(C(=O)Cn3nc(C(F)F)cc3C(F)F)CC2)n1` [compound 813, 1-Naphthyl 2-(1-{[3,5-bis(difluoromethyl)-1H-pyrazol-1-yl]acetyl}piperidin-4-yl)-1,3-thiazole-4-carboxylate], the chromatographic logP is 3.64 under setting [2] and 3.64 under setting [3].

For the compound `COc1ccccc1OC(=O)c1csc(C2CCN(C(=O)Cn3nc(C(F)(F)F)cc3C)CC2)n1` [compound 814], under setting [1], the log p was 3.17*.

Consider `Cc1cc(C(F)(F)F)nn1CC(=O)N1CCC(c2nc(C(=O)OC(c3ccccc3)C3CC3)cs2)CC1` (stereo not drawn) [compound 815], for which the log p under setting [1] is given as 3.87*.

Turning to `COc1cccc(OC)c1OC(=O)c1csc(C2CCN(C(=O)Cn3nc(C(F)(F)F)cc3C)CC2)n1` [compound 816], the log p under setting [1] is recorded as 3.12*.

As for `COc1ccccc1COC(=O)c1csc(C2CCN(C(=O)Cn3nc(C(F)(F)F)cc3C)CC2)n1` [compound 817], the log p under setting [1] is given as 3.44*.

On to `Cc1cc(C(F)(F)F)nn1CC(=O)N1CCC(c2nc(C(=O)OCc3c(Cl)cc(Cl)cc3Cl)cs2)CC1` [compound 818], for which the log p under setting [1] is listed as 4.53*.

Consider `Cc1cc(C(F)(F)F)nn1CC(=O)N1CCC(c2nc(C(=O)OCc3ccc(OC(F)(F)F)cc3)cs2)CC1` [compound 819], for which the log p under setting [1] is 3.99*.

Consider `Cc1cc(C(F)(F)F)nn1CC(=O)N1CCC(c2nc(C(=O)OCc3ccccc3Br)cs2)CC1` [compound 820, 2-Bromobenzyl 2-(1-{[5-methyl-3-(trifluoromethyl)-1H-pyrazol-1-yl]acetyl}piperidin-4-yl)-1,3-thiazole-4-carboxylate], for which the chromatographic logP worked out at 3.8 under setting [2] and 3.8 under setting [3].

Turning to `Cc1cc(C(F)(F)F)nn1CC(=O)N1CCC(c2nc(C(=O)Oc3ccccc3-c3ccccc3)cs2)CC1` [compound 821], the log p under setting [1] is listed as 3.96*.

`Cc1cc(C(F)(F)F)nn1CC(=O)N1CCC(c2nc(C(=O)Oc3cccc(Oc4ccccc4)c3)cs2)CC1` [compound 824]: the log p under setting [1] is recorded as 4.18*.

For `Cc1cc(C(F)(F)F)nn1CC(=O)N1CCC(c2nc(C(=O)Oc3ccc(Oc4ccccc4)cc3)cs2)CC1` [compound 825], under setting [1], the log p is listed as 4.14*.

Regarding `C#CC1(OC(=O)c2csc(C3CCN(C(=O)Cn4nc(C(F)(F)F)cc4C)CC3)n2)CCCCC1` [compound 826], the log p under setting [1] is on record as 3.76*.

For `Cc1cc(C(F)(F)F)nn1CC(=O)N1CCC(c2nc(C(=O)OC3(C#N)CCCCC3)cs2)CC1` [compound 827], the log p under setting [1] is reported as 3.33*.

As for `Cc1cc(C(F)(F)F)nn1CC(=O)N1CCC(c2nc(C(=O)OC3CCC(C(C)(C)C)CC3)cs2)CC1` (stereo not drawn) [compound 828], the log p under setting [1] was 5.19*.

Regarding `Cc1cc(C(F)(F)F)nn1CC(=O)N1CCC(c2nc(C(=O)OC3CC(C)CCC3C(C)C)cs2)CC1` (stereo not drawn) [compound 829], the log p under setting [1] is reported as 5.22*.

Turning to `Cc1cc(C(F)(F)F)nn1CC(=O)N1CCC(c2nc(C(=O)OC3CCC4(CC3)OCCO4)cs2)CC1` [compound 830], the log p under setting [1] was 2.90*.

Take `Cc1cc(C(F)(F)F)nn1CC(=O)N1CCC(c2nc(C(=O)OC3C(C)CCCC3C)cs2)CC1` (stereo not drawn) [compound 831]: the log p under setting [1] was 4.40*.

As to `Cc1cc(C(F)(F)F)nn1CC(=O)N1CCC(c2nc(C(=O)OC3CCCCC3C)cs2)CC1` (stereo not drawn) [compound 832], the log p under setting [1] is recorded as 4.12*.

Consider `CCCCCCCCOC(=O)c1csc(C2CCN(C(=O)Cn3nc(C(F)(F)F)cc3C)CC2)n1` [compound 833], for which the log p under setting [1] is recorded as 5.02*.

For the compound `COc1ccc(COC(=O)c2csc(C3CCN(C(=O)Cn4nc(C(F)(F)F)cc4C)CC3)n2)c(OC)c1` [compound 834], the log p under setting [1] is on record as 3.33*.

Take `Cc1cc(C(F)(F)F)nn1CC(=O)N1CCC(c2nc(C(=O)OCc3c(F)cc(F)cc3F)cs2)CC1` [compound 835]: under setting [1], the log p is listed as 3.53*.

As to `Cc1cc(C(F)(F)F)nn1CC(=O)N1CCC(c2nc(C(=O)OCc3ccccc3C(F)(F)F)cs2)CC1` [compound 836], the log p under setting [1] is on record as 3.84*.

Turning to `Cc1cc(C(F)(F)F)nn1CC(=O)N1CCC(c2nc(C(=O)OCc3ccccc3OC(F)(F)F)cs2)CC1` [compound 837], under setting [1], the log p is listed as 3.95*.

With `CC(C)(C)c1cc(C(F)(F)F)n(CC(=O)N2CCC(c3nc(C(=O)OCC4CCCCC4)cs3)CC2)n1` [compound 847], the log p under setting [1] is reported as 4.75*.

As to `CC(C)(C)c1cc(C(F)(F)F)nn1CC(=O)N1CCC(c2nc(C(=O)OCC3CCCCC3)cs2)CC1` [compound 848], the log p under setting [1] was 4.51*.

For `CC(C)(C)c1cc(C(F)(F)C(F)(F)F)n(CC(=O)N2CCC(c3nc(C(=O)OCC4CCCCC4)cs3)CC2)n1` [compound 849], the log p under setting [1] is 5.08*.

As for `CC(C)(C)c1cc(C(F)(F)C(F)(F)F)nn1CC(=O)N1CCC(c2nc(C(=O)OCC3CCCCC3)cs2)CC1` [compound 850], under setting [1], the log p is 4.94*.

On to `CC(C)c1cc(C(F)(F)F)n(CC(=O)N2CCC(c3nc(C(=O)OCC4CCCCC4)cs3)CC2)n1` [compound 851], for which the log p under setting [1] is 4.35*.
